From patent US5681821A, “Fluorescent 1-peptidylaminoalkanephosphonate derivatives” (Georgia Tech Research Corp., priority 1994, dated 1997)

T1: human leukocyte elastase (HLE) (Homo sapiens, UniProt P08246)
T1 construct: purchased Athens Research and Technology, Inc., Athens, Ga
T1 sequence (P08246 30-267): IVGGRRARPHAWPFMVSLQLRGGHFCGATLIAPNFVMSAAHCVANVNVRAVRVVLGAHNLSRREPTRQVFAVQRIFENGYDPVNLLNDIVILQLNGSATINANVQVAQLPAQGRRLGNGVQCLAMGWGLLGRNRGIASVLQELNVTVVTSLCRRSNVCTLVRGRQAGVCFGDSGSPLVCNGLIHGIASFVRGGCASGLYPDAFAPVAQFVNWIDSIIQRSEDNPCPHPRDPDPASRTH

T2: Asp-ase granule protease (Rattus norvegicus, UniProt P18291)
T2 construct: endogenous in cells; host or cells: RNK-16
T2 sequence (P18291 21-248): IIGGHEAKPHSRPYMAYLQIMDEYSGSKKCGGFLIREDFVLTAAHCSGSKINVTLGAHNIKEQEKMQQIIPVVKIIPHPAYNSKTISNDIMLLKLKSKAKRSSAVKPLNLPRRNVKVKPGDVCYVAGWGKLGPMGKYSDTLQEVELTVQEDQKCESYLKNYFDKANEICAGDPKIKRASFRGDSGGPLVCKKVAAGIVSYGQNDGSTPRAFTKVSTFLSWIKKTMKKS


Key:
[1] = biological target: T3, porcine pancreatic elastase (PPE) (Sus scrofa, UniProt P00772); experiment: Inactivation of PPE, incubation method; format: biochemical; settings: 0.1 M Hepes, 0.5 M NaCl, pH 7.5, 5-10% Me2SO, 25° C.; NI = no inhibition after 40 min of incubation
T3 construct: purchased United States Biochemical Corp., Cleveland, Ohio
Procedure: (§1) Inactivation rates of serine proteases by fluorescent peptidylphosphonates were measured by the incubation method. In each case the inactivation experiment was preceded by an enzyme assay in which the hydrolysis of peptide p-nitroanilide substrates, catalyzed by chymotrypsin, PPE, HLE, and trypsin was measured in 0.1M Hepes and 0.5M NaCl (0.01M CaCl2 for trypsin), pH 7.5 buffer containing 5-10% Me2 SO at 25° C. Stock solutions of substrates were prepared in Me2 SO (20 mM) and stored at -20° C. Final substrate concentrations were 0.24 mM. Chymotrypsin activity was assayed with Suc-Val-Pro-Phe-NA. PPE was assayed with Suc-Ala-Ala-Ala-NA. HLE was assayed with MeO-Suc-Ala-Ala-Pro-Val-NA and trypsin was assayed with Z-Arg-NA. The initial rates of hydrolysis were measured at 410 nm (ε410 =8800 M^-1 cm^-1) on a Beckman 35 spectrophotometer after 25-50 μL of an enzyme stock solution was added to a cuvette containing 2.0 mL of buffer and 25 μL of substrate.
(§2) Each inhibition reaction was initiated by adding a 50 μL aliquot of inhibitor (100-5000 μM in Me2 SO) to 0.5 mL of a 0.1M Hepes, 0.5M NaCl (0.01M CaCl2 for trypsin), pH 7.5 buffer containing 50 μL of a stock enzyme solution at 25° C. The enzyme stock solutions were 20 μM chymotrypsin, trypsin, and PPE in 1 mM HCl (pH 3), and 0.4-4 μM HLE in 0.25M NaAc and 1M NaCl at pH 5.5. All the enzyme stock solutions were stored at -20° C. prior to use. Aliquots (25 μL) were withdrawn at various intervals and the residual enzymatic activity was measured spectrophotometrically as described above. Pseudo first-order inactivation rate constants (kobsd) were obtained from plots of ln vt /vo vs time and had correlation coefficients greater than 0.98. Each kobsd was calculated from 5-10 activity determinations which extended to 2-3 half lives. Control experiments were carried out in the same way as described above except Me2 SO was added in place of the inhibitor solution in Me2 SO. […] These initial rates were used as vo in the calculation of the inhibition rate constants.

chymotrypsin = chymotrypsin (Bos taurus, UniProt P00766); experiment: Inactivation of chymotrypsin, incubation method; format: biochemical, bovine; settings: for kobsd /(I) Chymotrypsin: 0.1 M Hepes, 0.5 M NaCl, pH 7.5, 5-10% Me2SO, 25° C., NI = no inhibition after 40 min of incubation
Procedure: as §1, §2

[2] = biological target: T1, human leukocyte elastase (HLE); experiment: Inactivation of HLE, incubation method; format: biochemical; settings: 0.1 M Hepes, 0.5 M NaCl, pH 7.5, 5-10% Me2SO, 25° C.; NI = no inhibition after 40 min of incubation
Procedure: as §1, §2

[3] = tested on: tryptase granule protease; experiment: Inactivation of RNK-16 granule tryptase activity; format: biochemical; settings: RNK-16 granule protease activity
RNK-16 cells = experiment: Cell labeling and confocal imaging of NK line RNK-16; format: cell-based; settings: live RNK-16 cells, 0.1 mM inhibitor, 30 minutes, 37° C., confocal microscopy
Procedure: Cell Labeling and Imaging. Cells of the NK line RNK-16 were labeled as live cells, washed, treated with methanol as a fixative and permeabilizing agent, and then examined by confocal microscopy. The cells were treated at 1×10^7 cells/mL in RPMI 1640 culture media (Sigma Chemical Co., St. Louis, Mo.) containing 10 mM Hepes with 0.1 mM FTC-Aca-Ala-Ala-Met^P (OPh)2 for 30 minutes at 37° C. Control cells were treated with the same volume of DMSO required to deliver the inhibitor (typically 1% final concentration). Cells were then washed several times with phosphate buffered saline (PBS) to remove excess inhibitor. They were suspended overnight in cold 80% methanol to permeabilize the membrane. The cells were washed free of MeOH into PBS and fixed onto poly-L-lysine (Sigma) coated microscope slides using 3% paraformaldehyde. Fixed slides were washed in PBS, coated with Vectashield (Vector Laboratories, Inc., Burlingame, Ca.) to prevent fluorescence fading and topped with a coverslip. Fluorescent laser scanning confocal microscopy was done with a Bio-Rad MRC 600 confocal system utilizing a Zeiss Axiophot microscope and equipped with a mixed-gas argon/krypton ion laser using 488 nm excitation for fluorescein.

RNK-16 chymase [4] = experiment: Inactivation of RNK-16 granule chymase activity; format: biochemical; settings: granule protease activity
Asp-ase granule protease = biological target: T2, Asp-ase granule protease; experiment: Inactivation of RNK-16 granule Asp-ase activity; format: biochemical; settings: RNK-16 granule protease activity
RNK-16 chymase [5] = settings: previous approach, comparison; cited from earlier work
[6] = tested on: tryptase granule protease; settings: previous approach, comparison; cited from earlier work

T3 sequence (P00772 27-266): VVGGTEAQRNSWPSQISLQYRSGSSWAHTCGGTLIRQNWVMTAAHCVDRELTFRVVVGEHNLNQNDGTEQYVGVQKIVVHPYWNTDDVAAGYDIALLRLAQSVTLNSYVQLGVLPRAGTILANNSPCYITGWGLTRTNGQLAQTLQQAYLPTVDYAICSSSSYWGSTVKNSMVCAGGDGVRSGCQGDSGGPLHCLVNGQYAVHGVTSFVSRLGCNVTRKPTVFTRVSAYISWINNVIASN

Molecule | kobsd /(I) PPE [1] | kobsd /(I) Chymotrypsin (chymotrypsin) | kobsd /(I) HLE [2] | also measured
CC(NC(=O)[C@H](C)NC(=O)[C@H](C)NC(=O)CCCCCNC(=S)Nc1ccc2c(c1)C(=O)OC21c2ccc(O)cc2Oc2cc(O)ccc21)P(=O)(Oc1ccccc1)Oc1ccccc1 (stereo partly drawn) [Compound 2, Diphenyl 1-(6-(5-Fluoresceinylthiocarbamoylamino)caproylalanylalanylamino) ethanephosphonate] | 22 M⁻¹ s⁻¹ |  |  | 
CSCCC(NC(=O)[C@H](C)NC(=O)[C@H](C)NC(=O)OC(C)(C)C)P(=O)(Oc1ccccc1)Oc1ccccc1 (stereo partly drawn) [Compound 5, Boc-Ala-Ala-Met^P (OPh)2, reference compound] | 3 M⁻¹ s⁻¹ | 3 M⁻¹ s⁻¹ | 2 M⁻¹ s⁻¹ | 
CSCCC(NC(=O)[C@H](C)NC(=O)[C@H](C)NC(=O)CCCCCNC(=S)Nc1ccc2c(c1)C(=O)OC21c2ccc(O)cc2Oc2cc(O)ccc21)P(=O)(Oc1ccccc1)Oc1ccccc1 (stereo partly drawn) [Compound 1, Diphenyl 1-(6-(5-Fluoresceinylthiocarbamoylamino)caproylalanylalanylamino)-3-(methylthio)propanephosphonate] | 13 M⁻¹ s⁻¹ | 190 M⁻¹ s⁻¹ | 22 M⁻¹ s⁻¹ | inactivation of tryptase granule protease activity [3]: little; fluorescent labeling of cells (RNK-16 cells): reacted with distinct, granule-like regions; inactivation of RNK-16 chymase (RNK-16 chymase [4]): inactivated; inactivation of Asp-ase granule protease activity (Asp-ase granule protease): little
CC(NC(=O)[C@H](C)NC(=O)[C@H](C)NC(=O)OCc1ccccc1)P(=O)(Oc1ccccc1)Oc1ccccc1 (stereo partly drawn) [Compound 6, Z-Ala-Ala-Ala^P (OPh)2, reference compound] | 30 M⁻¹ s⁻¹ |  |  | 
soybean trypsin inhibitor: reversible serine protease inhibitor, macromolecular inhibitor (protein, UniProt P01070 25-205, looked up) Trypsin inhibitor A: DFVLDNEGNPLENGGTYYILSDITAFGGIRAAPTGNERCPLTVVQSRNELDKGIGTIISSPYRIRFIAEGHPLSLKFDSFAVIMLCVGIPTEWSVVEDLPEGPAVKIGENKDAMDGWFRLERVSDDEFNNYKLVFCPQQAEDDKCGDIGISIDHDDGTRRLVVSKNKPLVVQFQKLDKESL |  |  |  | inactivation of chymases of cytotoxic lymphocytes (RNK-16 chymase [5]): inactivated; inactivation of tryptases of cytotoxic lymphocytes [6]: inactivated

Second part, led by results:

kobsd /(I) PPE [1] | kobsd /(I) Chymotrypsin (chymotrypsin) | kobsd /(I) HLE [2] | Molecule | also measured
16 M⁻¹ s⁻¹ |  |  | CC(C)C[C@H](NC(=O)[C@H](Cc1ccccc1)NC(=O)CCCCCNC(=S)Nc1ccc2c(c1)C(=O)OC21c2ccc(O)cc2Oc2cc(O)ccc21)C(=O)NC(Cc1ccccc1)P(=O)(Oc1ccccc1)Oc1ccccc1 (stereo partly drawn) [Compound 3, Diphenyl 1-(6-(5-Fluoresceinylthiocarbamoylamino)caproylphenylalanylleucylamino)-2-phenylethanephosphonate] | times faster inhibition of chymotrypsin than of HLE (chymotrypsin; ratio of kobsd/(I) chymotrypsin to HLE): 600
 | 110 M⁻¹ s⁻¹ | 27 M⁻¹ s⁻¹ | CC(C)C[C@H](NC(=O)[C@H](Cc1ccccc1)NC(=O)OCc1ccccc1)C(=O)NC(Cc1ccccc1)P(=O)(Oc1ccccc1)Oc1ccccc1 (stereo partly drawn) [Compound 7, Z-Phe-Leu-Phe^P (OPh)2, reference compound] | 
11 M⁻¹ s⁻¹ | 15 M⁻¹ s⁻¹ | 96 M⁻¹ s⁻¹ | Diphenyl 1-(6-(4(or 2)(9-(2,3,6,7,12,13,16,17-octahydro-1H,5H,11H,15H-xantheno(2,3,4-ij:5,6,7- i'j')diquinolizinyl-18-ium))3(or 5)sulfo-1-phenylsulfonamido)caproylphenylalanylleucylamino)-2-phenylethanephosphonate, Hydroxide, Inner Salt [Compound 4] | 
